# Assay results from patent US20250381110A1, “SKIN CARE COMPOSITION AND METHOD OF USING THE SAME” (THE PROCTER & GAMBLE COMPANY, priority 2024, published 2025).
# Structures can show the parent of a compound that is named as a salt.
# Tested on: p62-dependent mitophagy
# Test: Luciferase-p62 assay (Fluc-p62 clearance) in mouse embryonic fibroblasts
# Assay type: cell-based
# Details: for Mean Luminescence: Luciferase-p62 assay, mouse embryonic fibroblasts (MEFs), compounds at 10 μM; for % Activity over baseline: percentage of Luciferase-p62 clearance relative to baseline (mean luminescence in the absence of doxycycline induction); for % Activity over baseline / % Activity relative to Rapamycin: MEFs, 10 μM; for % Activity relative to Rapamycin: percentage of activity relative to rapamycin tested in the same experiment at the same concentration
# Procedure: To identify p62-dependent materials which increase mitophagy, a Luciferase-p62 Assay was established. This method provides an approach to measure the ability of a material to modulate p62-dependent mitophagy by using an inducible firefly luciferase-p62 (Fluc-p62) reporter cell system. In this assay, p62 levels are driven by doxycycline treatment. After levels increased, expression of Fluc-p62 is turned off by removal of doxycycline, materials are then added and assessed for how they affect clearance of Fluc-p62 protein, which is proportionate to cellular mitophagy rates (Kelly et al.). The negative control is doxycycline induced Luc-p62 in the absence of compound or bioactive material treatment and in the presence of vehicle (DMSO).
# Test materials including bioactive materials were screened in mouse embryonic fibroblasts (MEFs, Harada et al.) expressing the TET-inducible p62-fluc construct as previously described (Brown et al.). […] Gibson assembly was used to insert firefly luciferase (Fluc) and p62 into the pCW57.1 backbone. Fluc, p62, and pCW57.1 were polymerase chain reaction (PCR) amplified using pfu polymerase (Life technologies) and Gibson assembly primers with 20 base pair (bp) overhangs. PCR products were separated by agarose gel electrophoreses, and fragments excised and purified before use in DNA assembly reaction with NEBuilder HiFi DNA Assembly kit (New England Biolabs). After the assembly, the reaction mix was transformed into NEB3040 Stable Competent Escherichia coli (New England Biolabs). After 24 hours growth at 31 degrees Celsius the plasmid was extracted using QIAprep Spin Miniprep kit (Qiagen). The plasmid was sequenced to confirm correct insertion of Fluc-p62. To generate MEFs stably expressing doxycycline inducible Fluc-p62, HEK293FT cells were transfected with Fluc-p62-pCW57.1 and the ViraPower Packaging Mix (Invitrogen) to produce lentivirus. MEFs were transduced with the obtained lentiviral stock following followed by selection with 1 microgram per milliliter puromycin.Fluc-p62expressing MEFs were maintained in DMEM supplemented with 10 percent fetal bovine serum (FBS), 100 units per milliliter penicillin/streptomycin, and 2 millimolar L-glutamine in a humidified atmosphere containing 5 percent carbon dioxide at 37 degrees Celsius. Cells were plated into white 96 well plates (2,000 cells per well with 100 microliters media) and allowed to settle for 24 hours. […] Subsequently, cells were treated with test materials for 48 hours in normal growth medium and analysed using ONE-Glo™+Tox Luciferase Reporter and Cell Viability Assay (Promega) by following the manufacturer's protocol.
# Test compositions and control compositions were prepared as described above in the Luciferase-p62 assay (Method 3) and tested accordingly. The compounds used in this example, as examples of bioactive materials, were from the APExBIO DiscoveryProbe™ Natural Product Library Plus (Houston, TX) and evaluated at equivalent concentrations (10 μM).
# Data are additionally calculated as percentage of activity relative to rapamycin, a benchmark control compound tested in the same experiment.
compound,measurement,value
N=c1ccn2c(n1)O[C@H]1[C@H](O)[C@@H](CO)O[C@H]12 [Cyclocytidine HCl],Mean Luminescence,914.30
same,% Activity over baseline,43.50%
same,% Activity relative to Rapamycin,78.37%
CS(=O)(=O)CCNCc1ccc(-c2ccc3ncnc(Nc4ccc(OCc5cccc(F)c5)c(Cl)c4)c3c2)o1 [Lapatinib Ditosylate],Mean Luminescence,578.14
same,% Activity over baseline,64.27%
same,% Activity relative to Rapamycin,115.80%
C=C1CC[C@@H]2[C@](C)(CO)[C@H](O)CC[C@@]2(C)[C@@H]1C/C=C1/C(=O)OC[C@H]1O [Andrographolide],Mean Luminescence,818.97
same,% Activity over baseline,49.39%
same,% Activity relative to Rapamycin,88.98%
Clc1ccc(COC(Cn2ccnc2)c2ccc(Cl)cc2Cl)c(Cl)c1 (centres unmarked) [Miconazole],Mean Luminescence,297.40
same,% Activity over baseline,81.62%
same,% Activity relative to Rapamycin,147.06%
C=CCNC1=C2C[C@@H](C)C[C@H](OC)[C@H](O)[C@@H](C)/C=C(\C)[C@H](OC(N)=O)[C@@H](OC)/C=C\C=C(/C)C(=O)NC(=CC1=O)C2=O [17-AAG (KOS953)],Mean Luminescence,299.07
same,% Activity over baseline,81.52%
same,% Activity relative to Rapamycin,146.87%
COc1cc(NS(=O)(=O)c2ccc(N)cc2)nc(OC)n1 [Sulfadimethoxine],Mean Luminescence,821.82
same,% Activity over baseline,49.21%
same,% Activity relative to Rapamycin,88.67%
COc1cc(C=O)cc(OC)c1O [Syringaldehyde],Mean Luminescence,896.55
same,% Activity over baseline,44.59%
same,% Activity relative to Rapamycin,80.34%
CCOC(=O)NCCCC(=O)NCCc1ccccc1 [Santacruzamate A (CAY10683)],Mean Luminescence,972.04
same,% Activity over baseline,39.93%
same,% Activity relative to Rapamycin,71.94%
C[C@@H]1CC[C@H]2[C@@H](C)C(=O)O[C@@H]3O[C@@]4(C)CC[C@@H]1[C@]32OO4 [Artemisinine],% Activity over baseline,39.29%
OC[C@@H](O)[C@@H](O)CO [Erythritol],Mean Luminescence,696.09
same,% Activity over baseline,56.98%
same,% Activity relative to Rapamycin,102.67%
CC[C@H]1CN2CC[C@]3(C(=O)Nc4ccccc43)[C@@H]2C[C@@H]1/C(=C\OC)C(=O)OC [Rhynchophylline],Mean Luminescence,953.80
same,% Activity over baseline,41.05%
same,% Activity relative to Rapamycin,73.97%
CC(C)(C)NCC(O)c1cc(Cl)c(N)c(Cl)c1 (centres unmarked) [Clenbuterol (hydrochloride)],Mean Luminescence,994.53
same,% Activity over baseline,38.54%
same,% Activity relative to Rapamycin,69.44%
OCCc1ccc(O)c(O)c1 [Hydroxytyrosol],Mean Luminescence,839.13
same,% Activity over baseline,48.14%
same,% Activity relative to Rapamycin,86.74%
N[C@H](Cc1ccccc1)C(=O)O [D-Phenylalanine],Mean Luminescence,763.78
same,% Activity over baseline,52.80%
same,% Activity relative to Rapamycin,95.13%
CC[C@@H](C(=O)[C@@H](C)[C@@H](O)[C@H](C)[C@@H]1O[C@@H]([C@@H](CC)C(=O)O)CC[C@@H]1C)[C@H]1O[C@]2(C=C[C@@H](O)[C@]3(CC[C@@](C)([C@H]4CC[C@](O)(CC)[C@H](C)O4)O3)O2)[C@H](C)C[C@@H]1C [Salinomycin],Mean Luminescence,792.70
same,% Activity over baseline,51.01%
same,% Activity relative to Rapamycin,91.91%
N[C@@H](Cc1cc(I)c(Oc2cc(I)c(O)c(I)c2)c(I)c1)C(=O)O [Levothyroxine sodium],Mean Luminescence,974.14
same,% Activity over baseline,39.80%
same,% Activity relative to Rapamycin,71.71%
C[C@H]1CCC/C=C/[C@@H]2C[C@H](O)C[C@H]2[C@H](O)/C=C/C(=O)O1 [Brefeldin A],Mean Luminescence,356.17
same,% Activity over baseline,77.99%
same,% Activity relative to Rapamycin,140.52%
CC[C@@H]1/C=C(\C)C[C@H](C)C[C@H](OC)[C@H]2O[C@@](O)(C(=O)C(=O)N3CCCC[C@H]3C(=O)O[C@H](/C(C)=C/[C@@H]3CC[C@@H](O)[C@H](OC)C3)[C@H](C)[C@@H](O)CC1=O)[C@H](C)C[C@@H]2OC [Ascomycin(FK 520)],Mean Luminescence,640.39
same,% Activity over baseline,60.42%
same,% Activity relative to Rapamycin,108.87%
CC[C@H](N)C(=O)O [L(+)-2-Aminobutyric acid],Mean Luminescence,981.68
same,% Activity over baseline,39.33%
same,% Activity relative to Rapamycin,70.87%
COc1ccc2cc3[n+](cc2c1O)CCc1cc2c(cc1-3)OCO2 [Berberrubine],Mean Luminescence,766.18
same,% Activity over baseline,52.65%
same,% Activity relative to Rapamycin,94.86%
CCC[C@@H]1C[C@@H](C(=O)N[C@@H]([C@H]2O[C@H](SC)[C@H](OP(=O)(O)O)[C@@H](O)[C@H]2O)[C@H](C)Cl)N(C)C1 [Clindamycin Phosphate],Mean Luminescence,526.49
same,% Activity over baseline,67.46%
same,% Activity relative to Rapamycin,121.55%
O=C1c2cccc3c2[C@H](CCC3)CN1[C@@H]1CN2CCC1CC2 [Palonosetron HCl],Mean Luminescence,915.97
same,% Activity over baseline,43.39%
same,% Activity relative to Rapamycin,78.18%
Schisantherin A,Mean Luminescence,875.42
same,% Activity over baseline,45.90%
same,% Activity relative to Rapamycin,82.70%
CC(=O)O[C@H](CC(=O)O)C[N+](C)(C)C.[Cl-] [L-Acetylcarnitine (hydrochloride)],Mean Luminescence,581.20
same,% Activity over baseline,64.08%
same,% Activity relative to Rapamycin,115.46%
CC1=C2C[C@H]3[C@@H](CC=C4C[C@@H](O)CC[C@@]43C)[C@@H]2CC[C@]12O[C@@H]1C[C@H](C)CN[C@H]1[C@H]2C [Cyclopamine],Mean Luminescence,471.92
C[C@H]1O[C@@H](O[C@H]2CC[C@@]3(C)[C@@H](CC[C@]4(C)[C@@H]3C=C[C@]35OC[C@@]6(CCC(C)(C)C[C@H]63)[C@@H](O)C[C@]54C)[C@]2(C)CO)[C@H](O)[C@@H](O[C@@H]2O[C@H](CO)[C@@H](O)[C@H](O)[C@H]2O)[C@H]1O [Saikosaponin A],Mean Luminescence,561.50
same,% Activity over baseline,65.30%
same,% Activity relative to Rapamycin,117.65%
CCCCCCCCC[C@H](O)CC(=O)CCc1ccc(O)c(OC)c1 [Compound 10-Gingerol],Mean Luminescence,520.57
same,% Activity over baseline,67.83%
same,% Activity relative to Rapamycin,122.21%
CC1(C)S[C@@H]2[C@H](NC(=O)Cc3ccccc3)C(=O)N2[C@H]1C(=O)O [Benzylpenicillin potassium],Mean Luminescence,937.79
same,% Activity over baseline,42.04%
same,% Activity relative to Rapamycin,75.75%
C=CC[C@@H]1/C=C(\C)C[C@H](C)C[C@H](OC)[C@H]2O[C@@](O)(C(=O)C(=O)N3CCCC[C@H]3C(=O)O[C@H](/C(C)=C/[C@@H]3CC[C@@H](O)[C@H](OC)C3)[C@H](C)[C@@H](O)CC1=O)[C@H](C)C[C@@H]2OC [Tacrolimus (FK506)],Mean Luminescence,512.17
same,% Activity over baseline,68.35%
same,% Activity relative to Rapamycin,123.15%
CC1(C)C2CCC1(C)C(O)C2 (centres unmarked) [(—)-Borneol],Mean Luminescence,967.20
same,% Activity over baseline,40.23%
same,% Activity relative to Rapamycin,72.48%
CN(Cc1ccc(C(C)(C)C)cc1)Cc1cccc2ccccc12 [Butenafine HCl],Mean Luminescence,582.45
same,% Activity over baseline,64.00%
same,% Activity relative to Rapamycin,115.32%
COc1cccc2c1C(=O)c1c(O)c3c(c(O)c1C2=O)C[C@@](O)(C(=O)CO)C[C@@H]3O[C@H]1C[C@H](N)[C@H](O[C@@H]2CCCCO2)[C@H](C)O1 [Pirarubicin],Mean Luminescence,978.32
same,% Activity over baseline,39.54%
same,% Activity relative to Rapamycin,71.24%
O=C(O)c1cccc(O)c1 [m-Hydroxybenzoic acid],Mean Luminescence,745.89
same,% Activity over baseline,53.90%
same,% Activity relative to Rapamycin,97.12%
Clc1ccccc1C(c1ccccc1)(c1ccccc1)n1ccnc1 [Clotrimazole],Mean Luminescence,623.22
same,% Activity over baseline,61.48%
same,% Activity relative to Rapamycin,110.78%
C[C@@H]1O[C@@H](O[C@H]2C[C@@H](O)[C@]3(CO)[C@H]4[C@H](O)C[C@]5(C)[C@@H](C6=CC(=O)OC6)CC[C@]5(O)[C@@H]4CC[C@]3(O)C2)[C@H](O)[C@H](O)[C@H]1O [Ouabain],Mean Luminescence,788.34
same,% Activity over baseline,51.28%
same,% Activity relative to Rapamycin,92.39%
